Source: PMC4728508 (Marine Drugs, 2016)

Key:
Kunming mice = conditions: mouse, in vivo, sc
rat α3β2 nAChR = rat α3β2 nAChR (Rattus norvegicus, UniProt P04757+P12390); type: cell-based
human α3β2 nAChR = human α3β2 nAChR (Homo sapiens, UniProt P17787+P32297); type: cell-based
Chain of human α3β2 nAChR (P32297 32-505 limits assumed): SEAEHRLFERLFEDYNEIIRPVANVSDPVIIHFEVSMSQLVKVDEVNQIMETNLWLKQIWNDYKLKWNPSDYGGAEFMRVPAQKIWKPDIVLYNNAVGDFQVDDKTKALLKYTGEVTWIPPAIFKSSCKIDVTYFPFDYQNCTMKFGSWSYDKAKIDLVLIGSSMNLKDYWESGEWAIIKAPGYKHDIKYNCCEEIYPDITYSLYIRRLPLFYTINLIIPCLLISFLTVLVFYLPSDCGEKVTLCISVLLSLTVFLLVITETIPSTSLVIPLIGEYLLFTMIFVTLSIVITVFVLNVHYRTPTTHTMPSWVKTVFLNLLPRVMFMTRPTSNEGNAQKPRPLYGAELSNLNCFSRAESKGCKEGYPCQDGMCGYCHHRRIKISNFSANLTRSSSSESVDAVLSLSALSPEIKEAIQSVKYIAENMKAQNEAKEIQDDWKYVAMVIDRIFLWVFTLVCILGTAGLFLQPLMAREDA
Chain of human α3β2 nAChR (P17787 26-502 limits assumed): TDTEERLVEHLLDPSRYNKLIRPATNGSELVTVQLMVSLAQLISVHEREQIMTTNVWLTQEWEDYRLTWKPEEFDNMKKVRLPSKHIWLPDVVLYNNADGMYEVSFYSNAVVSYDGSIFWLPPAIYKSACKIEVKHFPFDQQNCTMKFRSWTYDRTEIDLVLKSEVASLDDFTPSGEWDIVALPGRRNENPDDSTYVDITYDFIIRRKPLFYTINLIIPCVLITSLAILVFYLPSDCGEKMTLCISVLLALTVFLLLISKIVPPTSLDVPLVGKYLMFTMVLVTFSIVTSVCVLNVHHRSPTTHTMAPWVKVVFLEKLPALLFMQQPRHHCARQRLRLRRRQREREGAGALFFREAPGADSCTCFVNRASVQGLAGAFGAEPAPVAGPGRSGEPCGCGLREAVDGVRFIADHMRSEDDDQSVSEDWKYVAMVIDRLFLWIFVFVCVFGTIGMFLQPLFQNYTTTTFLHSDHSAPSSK

Chain of rat α3β2 nAChR (P04757 26-499 limits assumed): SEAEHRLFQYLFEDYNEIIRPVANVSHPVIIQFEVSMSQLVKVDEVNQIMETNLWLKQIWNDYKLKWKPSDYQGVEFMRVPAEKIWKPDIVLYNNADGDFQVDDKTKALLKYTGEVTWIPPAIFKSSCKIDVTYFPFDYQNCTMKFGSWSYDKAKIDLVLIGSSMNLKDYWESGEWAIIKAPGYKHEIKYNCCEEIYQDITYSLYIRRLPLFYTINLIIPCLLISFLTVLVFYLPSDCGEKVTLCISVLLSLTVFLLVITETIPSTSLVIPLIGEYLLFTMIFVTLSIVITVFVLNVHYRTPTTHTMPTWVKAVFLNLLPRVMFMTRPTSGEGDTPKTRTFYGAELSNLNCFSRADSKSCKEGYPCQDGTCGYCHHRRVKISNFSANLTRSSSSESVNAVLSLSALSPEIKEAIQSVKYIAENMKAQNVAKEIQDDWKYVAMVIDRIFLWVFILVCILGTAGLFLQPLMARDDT
Chain of rat α3β2 nAChR (P12390 25-500 limits assumed): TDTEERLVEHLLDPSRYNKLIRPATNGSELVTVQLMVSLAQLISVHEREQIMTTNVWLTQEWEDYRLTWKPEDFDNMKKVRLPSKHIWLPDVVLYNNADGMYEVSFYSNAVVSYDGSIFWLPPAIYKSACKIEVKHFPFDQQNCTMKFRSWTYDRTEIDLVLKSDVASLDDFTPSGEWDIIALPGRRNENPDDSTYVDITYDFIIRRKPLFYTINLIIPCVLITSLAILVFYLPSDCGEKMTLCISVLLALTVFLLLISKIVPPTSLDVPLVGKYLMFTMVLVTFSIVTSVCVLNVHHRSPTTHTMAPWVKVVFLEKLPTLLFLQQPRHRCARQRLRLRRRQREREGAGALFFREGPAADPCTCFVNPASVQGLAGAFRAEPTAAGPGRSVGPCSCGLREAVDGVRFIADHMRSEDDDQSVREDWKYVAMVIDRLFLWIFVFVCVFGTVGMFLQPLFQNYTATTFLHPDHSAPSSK

Structure (SMILES)	latency to thermal stimulus (Kunming mice)	loss of potency versus native LvIA (rat α3β2 nAChR) [fold]	loss of potency versus native LvIA (human α3β2 nAChR) [fold]
CN1CC[C@]23c4c5ccc(O)c4O[C@H]2[C@@H](O)C=C[C@H]3[C@H]1C5 [Morphine]	highest latency	–	–
CC[C@H](C)[C@@H]1NC(=O)[C@H](CCC(=O)O)NC(=O)[C@@H]2CCCN2C(=O)[C@H](Cc2c[nH]cn2)NC(=O)[C@H](CC(=O)O)NC(=O)[C@H](C(C)C)NC(=O)[C@H](CC(N)=O)NC(=O)[C@@H]2CSSC[C@H](NC(=O)CNC(=O)[C@@H](N)CCSC)C(=O)N[C@@H](CSSC[C@@H](C(=O)O)NC1=O)C(=O)N[C@@H](CO)C(=O)N[C@@H](Cc1c[nH]cn1)C(=O)N1CCC[C@H]1C(=O)N[C@@H](C)C(=O)N2 [rLvIA]	–	18.5	2.7
